What all share (assay): biochemical
What all share (design): Thermo Fisher SelectScreen kinase panel: Z'-LYTE and Adapta activity, LanthaScreen binding
In general terms: TR-FRET usually uses a lanthanide donor and a delayed reading to cut background.

One test addresses AKT1 (Homo sapiens, UniProt P31749). Put shortly:
(§1)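 Single-concentration panel: 10 µM GNE684 in KINOMEscan scanMAX binding (468 kinases) and in a 221-kinase panel run as Z'-LYTE/Adapta activity or LanthaScreen binding assays.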

For a further test, the target named is T1, ALK2 (Homo sapiens, UniProt Q04771).
T1 construct: gene ACVR1
Put shortly: as §1

The target of the next test is BLK (Homo sapiens, UniProt P51451). The method, boiled down: as §1
A further test deals with BRSK1 (Homo sapiens, UniProt Q8TDC3). The method, boiled down:
as §1

The target of another test is CAMKK1 (Homo sapiens, UniProt Q8N5S9). The method, boiled down: as §1
The target of the next test is CDK7/cyclinH (Homo sapiens, UniProt P50613). Put shortly:
as §1

For another test, the target named is CSK (Homo sapiens, UniProt P41240). Put shortly: as §1
For another test, the target named is DMPK (Homo sapiens, UniProt Q09013). Put shortly: as §1
A further test concerns the target FGFR1 (Homo sapiens, UniProt P11362). Put shortly:
as §1

The next test deals with FLT3 (Homo sapiens, UniProt P36888). Put shortly:
as §1

Another test addresses GRK3 (Homo sapiens, UniProt P35626). The method, boiled down:
as §1

For the next test, the target named is JAK2 (Homo sapiens, UniProt O60674). Put shortly:
as §1

Another test has as its target LRRK2 (Homo sapiens, UniProt Q5S007). Put shortly: as §1
A further test has as its target T2, Mer (Homo sapiens, UniProt Q12866).
T2 construct: gene MERTK
Put shortly:
as §1

The target in a further test is NEK1 (Homo sapiens, UniProt Q96PY6). Put shortly: as §1
In the next test the target is T3, PI3K-A (Homo sapiens, UniProt P42336).
T3 construct: gene PIK3CA; p110alpha/p85alpha
The method, boiled down:
as §1

In a further test the target is T4, PI3K-G (Homo sapiens, UniProt P48736).
T4 construct: gene PIK3CG; p110gamma
Put shortly:
as §1

The target of a further test is PLK3 (Homo sapiens, UniProt Q9H4B4). Put shortly:
as §1

Another test addresses RIPK3 (Homo sapiens, UniProt Q9Y572). The method, boiled down: as §1
The next test concerns the target T5, RSK1 (Homo sapiens, UniProt Q15418).
T5 construct: gene RPS6KA1
The method, boiled down:
as §1

The next test has as its target SGK1 (Homo sapiens, UniProt O00141). Put shortly:
as §1

The target of the next test is SRC (Homo sapiens, UniProt P12931). The method, boiled down:
as §1

The next test addresses WEE1 (Homo sapiens, UniProt P30291). The method, boiled down: as §1

Chain of FGFR1 (P11362 whole entry): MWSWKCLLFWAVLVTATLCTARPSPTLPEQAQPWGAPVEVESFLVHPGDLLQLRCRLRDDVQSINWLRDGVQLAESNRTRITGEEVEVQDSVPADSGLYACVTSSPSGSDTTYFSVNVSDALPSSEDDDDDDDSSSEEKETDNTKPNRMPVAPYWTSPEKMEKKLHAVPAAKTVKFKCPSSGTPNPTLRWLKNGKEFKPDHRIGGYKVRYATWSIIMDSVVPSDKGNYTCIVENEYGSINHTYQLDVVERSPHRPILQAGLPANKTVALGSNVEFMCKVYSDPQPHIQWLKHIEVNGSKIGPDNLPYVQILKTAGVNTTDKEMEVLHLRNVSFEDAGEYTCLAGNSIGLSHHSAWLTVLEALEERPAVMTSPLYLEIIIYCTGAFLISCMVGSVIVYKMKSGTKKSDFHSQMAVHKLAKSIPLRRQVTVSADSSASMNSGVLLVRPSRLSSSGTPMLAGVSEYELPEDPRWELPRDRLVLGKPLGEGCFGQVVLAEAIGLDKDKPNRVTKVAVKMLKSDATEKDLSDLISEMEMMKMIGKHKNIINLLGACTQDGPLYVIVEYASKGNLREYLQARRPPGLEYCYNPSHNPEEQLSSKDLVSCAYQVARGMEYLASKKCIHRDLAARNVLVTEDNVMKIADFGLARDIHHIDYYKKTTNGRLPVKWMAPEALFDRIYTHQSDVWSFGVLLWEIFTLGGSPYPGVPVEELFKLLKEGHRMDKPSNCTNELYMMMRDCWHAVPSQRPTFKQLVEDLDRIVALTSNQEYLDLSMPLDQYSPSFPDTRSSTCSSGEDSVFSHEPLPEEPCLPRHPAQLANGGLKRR
Chain of CDK7/cyclinH (P50613 whole entry): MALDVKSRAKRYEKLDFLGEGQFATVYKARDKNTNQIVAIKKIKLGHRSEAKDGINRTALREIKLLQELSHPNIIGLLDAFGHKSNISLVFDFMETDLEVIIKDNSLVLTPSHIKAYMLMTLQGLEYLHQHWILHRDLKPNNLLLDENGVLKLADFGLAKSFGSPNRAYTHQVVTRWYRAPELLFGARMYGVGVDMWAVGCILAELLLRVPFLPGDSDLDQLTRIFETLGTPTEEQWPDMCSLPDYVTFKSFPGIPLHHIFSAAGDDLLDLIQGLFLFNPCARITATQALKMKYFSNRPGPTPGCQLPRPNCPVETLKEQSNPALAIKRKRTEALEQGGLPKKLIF
Chain of FLT3 (P36888 whole entry): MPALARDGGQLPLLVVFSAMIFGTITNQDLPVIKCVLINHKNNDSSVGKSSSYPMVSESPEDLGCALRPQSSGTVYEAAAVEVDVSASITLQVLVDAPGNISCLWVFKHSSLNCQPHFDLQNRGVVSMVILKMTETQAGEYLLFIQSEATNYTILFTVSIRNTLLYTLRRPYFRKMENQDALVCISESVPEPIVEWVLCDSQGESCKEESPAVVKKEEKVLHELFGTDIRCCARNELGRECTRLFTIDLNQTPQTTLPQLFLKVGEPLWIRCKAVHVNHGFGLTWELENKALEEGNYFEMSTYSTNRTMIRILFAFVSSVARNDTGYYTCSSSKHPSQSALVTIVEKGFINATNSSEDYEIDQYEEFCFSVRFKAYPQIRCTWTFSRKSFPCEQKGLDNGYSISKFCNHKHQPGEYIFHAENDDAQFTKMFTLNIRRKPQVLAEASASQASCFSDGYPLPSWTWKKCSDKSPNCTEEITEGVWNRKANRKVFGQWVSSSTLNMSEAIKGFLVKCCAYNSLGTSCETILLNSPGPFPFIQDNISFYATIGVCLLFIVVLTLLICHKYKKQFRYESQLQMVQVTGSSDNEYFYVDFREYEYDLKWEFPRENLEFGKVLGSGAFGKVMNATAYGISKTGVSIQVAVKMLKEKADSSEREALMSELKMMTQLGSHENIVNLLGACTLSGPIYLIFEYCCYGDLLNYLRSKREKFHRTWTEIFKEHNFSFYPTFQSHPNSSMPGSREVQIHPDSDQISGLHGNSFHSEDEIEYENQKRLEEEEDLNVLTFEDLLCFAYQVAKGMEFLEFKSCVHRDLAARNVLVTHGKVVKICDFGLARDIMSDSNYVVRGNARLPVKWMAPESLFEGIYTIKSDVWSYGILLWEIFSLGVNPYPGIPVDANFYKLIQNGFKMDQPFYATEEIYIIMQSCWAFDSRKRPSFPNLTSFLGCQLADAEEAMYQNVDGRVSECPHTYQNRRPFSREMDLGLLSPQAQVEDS
Chain of AKT1 (P31749 whole entry): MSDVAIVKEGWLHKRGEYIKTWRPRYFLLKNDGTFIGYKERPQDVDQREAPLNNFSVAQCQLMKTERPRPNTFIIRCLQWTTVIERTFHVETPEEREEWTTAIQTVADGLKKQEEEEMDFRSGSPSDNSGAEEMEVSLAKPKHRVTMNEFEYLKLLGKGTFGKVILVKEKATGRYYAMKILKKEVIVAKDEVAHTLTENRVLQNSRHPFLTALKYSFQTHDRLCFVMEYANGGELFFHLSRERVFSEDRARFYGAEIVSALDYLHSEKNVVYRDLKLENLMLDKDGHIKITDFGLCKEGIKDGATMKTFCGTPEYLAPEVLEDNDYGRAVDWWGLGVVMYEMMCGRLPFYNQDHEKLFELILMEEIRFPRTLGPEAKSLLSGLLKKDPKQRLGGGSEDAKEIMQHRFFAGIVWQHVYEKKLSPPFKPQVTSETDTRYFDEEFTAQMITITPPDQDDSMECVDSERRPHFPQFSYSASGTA
T1 sequence (Q04771 whole entry): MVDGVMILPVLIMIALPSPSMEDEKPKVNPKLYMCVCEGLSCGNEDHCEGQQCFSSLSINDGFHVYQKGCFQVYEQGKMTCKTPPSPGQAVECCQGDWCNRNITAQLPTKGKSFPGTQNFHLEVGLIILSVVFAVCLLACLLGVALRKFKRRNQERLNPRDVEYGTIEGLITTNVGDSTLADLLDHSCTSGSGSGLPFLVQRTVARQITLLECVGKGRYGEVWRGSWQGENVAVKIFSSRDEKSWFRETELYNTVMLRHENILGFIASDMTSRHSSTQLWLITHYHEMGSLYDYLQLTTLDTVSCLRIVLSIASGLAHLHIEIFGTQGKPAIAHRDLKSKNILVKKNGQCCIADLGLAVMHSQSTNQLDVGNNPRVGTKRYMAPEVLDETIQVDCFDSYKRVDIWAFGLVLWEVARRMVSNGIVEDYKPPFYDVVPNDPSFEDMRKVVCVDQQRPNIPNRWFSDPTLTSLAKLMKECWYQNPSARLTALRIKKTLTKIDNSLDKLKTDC
Chain of NEK1 (Q96PY6 whole entry): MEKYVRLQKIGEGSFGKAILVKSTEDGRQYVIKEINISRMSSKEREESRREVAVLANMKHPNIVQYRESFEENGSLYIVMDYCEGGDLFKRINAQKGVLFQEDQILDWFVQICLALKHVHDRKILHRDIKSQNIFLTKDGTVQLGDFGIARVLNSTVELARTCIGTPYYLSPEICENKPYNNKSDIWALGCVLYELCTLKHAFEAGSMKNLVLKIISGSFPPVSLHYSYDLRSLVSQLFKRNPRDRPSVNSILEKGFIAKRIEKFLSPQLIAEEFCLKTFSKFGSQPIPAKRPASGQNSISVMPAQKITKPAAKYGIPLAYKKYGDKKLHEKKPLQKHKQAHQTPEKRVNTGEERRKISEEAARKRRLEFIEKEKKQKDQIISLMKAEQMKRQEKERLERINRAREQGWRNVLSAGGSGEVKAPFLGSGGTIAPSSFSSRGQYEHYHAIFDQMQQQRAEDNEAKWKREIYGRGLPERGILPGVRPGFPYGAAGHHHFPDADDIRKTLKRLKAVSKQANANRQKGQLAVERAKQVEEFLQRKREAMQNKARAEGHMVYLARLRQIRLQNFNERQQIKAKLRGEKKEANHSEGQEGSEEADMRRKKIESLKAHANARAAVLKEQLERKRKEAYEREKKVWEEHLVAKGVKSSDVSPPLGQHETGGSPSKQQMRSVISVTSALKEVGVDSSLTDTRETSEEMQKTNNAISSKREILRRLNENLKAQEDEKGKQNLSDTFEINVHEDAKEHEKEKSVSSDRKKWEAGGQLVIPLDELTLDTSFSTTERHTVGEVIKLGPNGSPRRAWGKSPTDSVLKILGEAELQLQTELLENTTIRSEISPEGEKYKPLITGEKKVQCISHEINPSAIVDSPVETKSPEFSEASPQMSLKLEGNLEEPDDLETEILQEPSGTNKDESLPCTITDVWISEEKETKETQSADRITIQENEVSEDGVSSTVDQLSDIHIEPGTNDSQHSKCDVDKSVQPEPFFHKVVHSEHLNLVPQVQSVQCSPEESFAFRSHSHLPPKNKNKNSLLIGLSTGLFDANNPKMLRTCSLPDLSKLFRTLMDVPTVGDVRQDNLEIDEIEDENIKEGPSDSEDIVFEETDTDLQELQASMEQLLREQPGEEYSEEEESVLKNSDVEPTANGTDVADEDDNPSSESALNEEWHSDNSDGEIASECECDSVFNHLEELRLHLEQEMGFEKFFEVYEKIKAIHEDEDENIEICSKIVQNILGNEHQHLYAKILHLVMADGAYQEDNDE
Chain of CAMKK1 (Q8N5S9 whole entry): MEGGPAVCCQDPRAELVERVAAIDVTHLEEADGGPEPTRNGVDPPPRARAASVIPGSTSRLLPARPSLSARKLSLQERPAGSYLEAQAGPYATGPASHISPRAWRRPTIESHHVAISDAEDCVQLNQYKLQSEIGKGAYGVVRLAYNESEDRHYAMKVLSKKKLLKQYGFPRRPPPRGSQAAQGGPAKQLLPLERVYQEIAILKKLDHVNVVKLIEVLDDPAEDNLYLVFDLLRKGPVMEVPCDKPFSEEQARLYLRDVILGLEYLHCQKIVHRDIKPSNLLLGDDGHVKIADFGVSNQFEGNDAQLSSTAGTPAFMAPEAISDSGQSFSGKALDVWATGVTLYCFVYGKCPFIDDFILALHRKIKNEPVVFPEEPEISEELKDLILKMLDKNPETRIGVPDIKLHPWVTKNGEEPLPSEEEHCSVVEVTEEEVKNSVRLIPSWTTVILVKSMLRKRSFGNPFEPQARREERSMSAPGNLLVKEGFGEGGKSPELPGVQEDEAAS

Regarding `COc1cc2c(cn1)N(C)C(=O)[C@@H](NC(=O)c1nc3n(n1)[C@H](c1ccccc1)CC3)CC2` [GNE684, (S)-N-((S)-7-methoxy-1-methyl-2-oxo-2,3,4,5-tetrahydro-1H-pyrido[3,4-b]azepin-3-yl)-5-phenyl-6,7-dihydro-5H-pyrrolo[1,2-b][1,2,4]triazole-2-carboxamide], the inhibition at 10 µM at AKT1 is 2.5%; on ALK2, 2%; on BLK, 6.5%; on BRSK1, 2.5%; on CAMKK1 it was -7.5%; at CDK7/cyclinH, 5%. Moreover, the inhibition at 10 µM on CSK was -1.5%; at DMPK it was -3%; on FGFR1, -2%; at FLT3, 10%; at GRK3 it was 2.5%; at JAK2 it was 2.5%. The inhibition at 10 µM was -19.5% at LRRK2; -5% on Mer; 7.5% at NEK1; 16% at PI3K-A; 13.5% at PI3K-G; 5% on PLK3. Besides, the inhibition at 10 µM was -3% on RIPK3; 4.5% at RSK1; -1% at SGK1; -1% at SRC; 0.5% at WEE1.

As usually defined, the inhibition is the change of the read-out against control, counted positive when it falls.

The record behind these values is PMC7206119, “RIP1 inhibition blocks inflammatory diseases but not tumor growth or metastases” (Cell Death and Differentiation, 2019).
